Measurements taken from US9140688B2, “Sperm staining and sorting methods” (INGURAN, LLC, priority 2011, dated 2015).

Experiments:
[1] = cited from earlier work; for Expected Absorption Maxima: solvent water, shorter-wavelength local maximum
[2] = system: X- and Y-chromosome bearing bovine sperm stained with Hoechst 33342; assay: Split quality: height of peak divided by height of valley (PV), flow cytometry of stained bovine sperm; type: cell-based; settings: for PV: Ex 9, Bull 3, Hoechst 60 μM; for peak to valley ratio, average 8 bulls: Ex 10, Hoechst 64 μM

For `CCN(Cc1cccc(S(=O)(=O)[O-])c1)c1ccc(C(=C2C=CC(=[N+](CC)Cc3cccc(S(=O)(=O)[O-])c3)C=C2)c2ccc(O)cc2S(=O)(=O)[O-])cc1.[Na+].[Na+]` [Green 3], the “Expected Absorption Maxima” value [1] is given as 625 nm.
In the case of `O=C1/C(=C2\Nc3ccc(S(=O)(=O)[O-])cc3C2=O)Nc2ccc(S(=O)(=O)[O-])cc21.[Na+].[Na+]` [Blue 2], the “Expected Absorption Maxima” value [1] is given as 610 nm.
Work on `O=C(O)c1ccccc1-c1c2cc(I)c(=O)c(I)c-2oc2c(I)c(O)c(I)cc12` [Red 3, 2-(6-Hydroxy-2,4,5,7-tetraiodo-3-oxo-xanthen-9-yl)benzoic acid] yielded a PV ([2]; R3 25 μM with Y6 50 μM, first Y6 series) of 1.45, a PV ([2]; R3 50 μM with R40 50 μM) of 1.63 and a PV ([2]; R3 50 μM with Y6 50 μM, second Y6 series) of 1.33. For the same compound, the PV ([2]; R3 100 μM with R40 50 μM) was 1.65, the PV ([2]; R3 100 μM with Y6 50 μM, first Y6 series) was 1.38 and the PV ([2]; R3 100 μM with Y6 50 μM, second Y6 series) was 1.55. The PV ([2]; R3 150 μM with Y6 50 μM, first Y6 series) was 1.41, the PV ([2]; R3 200 μM with R40 50 μM) was 1.78 and the PV ([2]; R3 300 μM with R40 50 μM) was 2.15. It also gave a PV ([2]; R3 300 μM with Y6 50 μM, first Y6 series) of 1.66, a PV ([2]; R3 300 μM with Y6 50 μM, second Y6 series) of 1.68 and a PV ([2]; R3 600 μM with Y6 50 μM, first Y6 series) of 1.31. For the same compound, the PV ([2]; R3 600 μM with Y6 50 μM, second Y6 series) was 1.42, the “peak to valley ratio, average 8 bulls” value ([2]; split enhancing dye 15 μM, 30 Min incubation, Y6 25 μM in second buffer) was 1.05 and the “peak to valley ratio, average 8 bulls” value ([2]; split enhancing dye 15 μM, 45 Min, Y6 25 μM) was 1.43. The “peak to valley ratio, average 8 bulls” value ([2]; split enhancing dye 15 μM, 60 Min, Y6 25 μM) was 1.78, the “peak to valley ratio, average 8 bulls” value ([2]; split enhancing dye 15 μM, 75 Min, Y6 25 μM) was 1.79 and the “peak to valley ratio, average 8 bulls” value ([2]; split enhancing dye 45 μM, 30 Min, Y6 25 μM) was 1.05. The “peak to valley ratio, average 8 bulls” value ([2]; split enhancing dye 45 μM, 45 Min, Y6 25 μM) was 1.36, the “peak to valley ratio, average 8 bulls” value ([2]; split enhancing dye 45 μM, 60 Min, Y6 25 μM) was 1.58 and the “peak to valley ratio, average 8 bulls” value ([2]; split enhancing dye 45 μM, 75 Min, Y6 25 μM) was 1.60. The “peak to valley ratio, average 8 bulls” value ([2]; split enhancing dye 125 μM, 30 Min, Y6 25 μM) was 1.00, the “peak to valley ratio, average 8 bulls” value ([2]; split enhancing dye 125 μM, 45 Min, Y6 25 μM) was 1.02 and the “peak to valley ratio, average 8 bulls” value ([2]; split enhancing dye 125 μM, 60 Min, Y6 25 μM) was 1.10. For the same compound, the “peak to valley ratio, average 8 bulls” value ([2]; split enhancing dye 125 μM, 75 Min, Y6 25 μM) was 1.32, the “(local) maximum absorption wavelength, as believed” value ([1]; phenol red in the red molecular form) was “about 530 nm” and the “Expected Absorption Maxima” value [1] was 530 nm.
In the case of `CCN(Cc1cccc(S(=O)(=O)[O-])c1)c1ccc(C(=C2C=CC(=[N+](CC)Cc3cccc(S(=O)(=O)[O-])c3)C=C2)c2ccccc2S(=O)(=O)[O-])cc1.[Na+].[Na+]` [Blue 1], the “Expected Absorption Maxima” value [1] is given as 627 nm.
